Measurements: US12213977B2, “Methods and compositions for treating melanoma” (THE REGENTS OF THE UNIVERSITY OF CALIFORNIA, priority 2017, dated 2025)
“Also recorded” adds a separate entry of the source. Where a SMILES comes first, the peptide text is derived from it. The star is where a group is joined. Cbz = O=C(OCc1ccccc1)*; CH2F = FC*

B1: IFNγ: Recombinant IFNγ, cytokine secreted by T cells, obtained from Peprotech (protein, UniProt P01579 24-161, looked up)
Interferon gamma: QDPYVKEAENLKKYFNAGHSDVADNGTLFLGILKNWKEESDRKIMQSQIVSFYFKLFKNFKDDQSIQKSVETIKEDMNVKFFNSNKKKRDDFEKLTNYSVTDLNVQRKAIHELIQVMAELSPAAKTGKRKRSQMLFRG

Key:
[1] = tested on: melanoma cell lines; experiment: CTRP pharmacogenomics drug sensitivity (AUC) across melanoma cell lines grouped by predicted differentiation subtype; format: cell-based; conditions: for specificity of cell death-inducing compound for dedifferentiated melanoma cells: CTRP drug sensitivity profiles by subtype; for sensitivity (CTRP AUC) with increased dedifferentiation status: melanoma cell lines by predicted subtype, ANOVA P<0.01, irrespective of mutation status
Description: Through the prediction of subtypes from the CCLE and GDSC dataset, the inventors utilized the matching drug sensitivity profiles available from the pharmacogenomics-based Cancer Therapeutics Response Portal (CTRP) (Seashore-Ludlow et al., 2015). […] These compounds are erastin, (1S,3R)-RSL3, ML162, and M210 (FIG. 3B).
Dataset from Hoek et al of melanoma cell lines was obtained from GSE4845 and batch normalized using ComBat from the R sva package. Dataset from Mica et al for the melanocyte differentiation stage analysis was obtained from GSE45227. Gene expression profiles from samples representing the growth conditions for each specified stage of differentiation based on the original manuscript was used for analysis (day 0 embryonic stem cell, day 6 neural crest cell, day 11 melanoblast, and day 25 melanocyte). Primary melanocyte expression profiles (adult and neonatal) were used as control. Cell line expression profiles from the CCLE and GSDC databases were downloaded from the respective resource websites (http://www.broadinstitute.org/ccle; http://www.cancerrxgene.org/downloads). For each dataset, microarray probes were collapsed to gene symbol to the maximum average probe. To have a gene list compatible for all datasets used, the inventors took an intersection of genes from both RNASeq and microarray chip platforms, resulting in 10,545 genes.
Principal component analysis (PCA) was performed on mean centered data and all statistical analyses were performed in R (http://www.R-project.org/). Projections were calculated by matrix multiplication of the centered data to be projected using the rotation matrix determined from the PCA of the original source data. ANOVA p-values were determined using the non-parametric Kruskal-Wallis test at a significance threshold of 0.05. Reported p-values between pairs of subtypes were determined using Dunn post-hoc testing with multiple hypothesis correction using the Benjamini & Hochberg method. Heatmaps and figures were generated using pheatmap and ggplot2 R packages.

[2] = tested on: undifferentiated signature cell lines M296, M410 M229R, and M238R; experiment: Cell death and rescue assays (resazurin viability, IncuCyte Cytotox Red, trypan blue exclusion); format: cell-based, human
Procedure: (§1) All cell viability assays were assayed in 96-well format with 5000 cells seeded per well. Dose-response curves were assayed using CellTiter-Glo luminescent cell viability assay (Promega, G7572). For all other measurements of viable cells, a fluorescent resazurin-based (Sigma-Aldrich, R7017) assay (AlamarBlue) was used with fluorescence measured at 570/600 ex/em wavelength. Percentage cell viability is reported as a percentage relative to the negative control treatment. Measurement of dead cells per time was measured by incubating treated cells with the IncuCyte Cytotox Red Reagent and imaging with IncuCyte ZOOM Live-Cell Imaging System (Essen BioScience). Trypan blue exclusion was also used for cell death assays.

[3] = tested on: M229, M397 and M249 melanoma cell lines; experiment: Crystal violet staining (clonogenic) assays of long-term or cytokine combination treatment; format: cell-based, human
Procedure: (§2) Human melanoma cell lines of the M series were established from patient's biopsies under UCLA IRB approval #11-003254 as previously described (Søndergaard et al., 2010). Cells were cultured in RPMI 1640 with L-glutamine, 10% fetal bovine serum, and 1% penicillin, streptomycin and fungizone in a water-saturated incubator at 37° C. with 5% CO2. Cells were maintained and tested for mycoplasma, and regularly authenticated to their early passages using GenePrint® 10 System (Promega). Presence of mutations in the genes of interest were checked by OncoMap 3 or lontrone, and was confirmed by PCR and Sanger sequencing as previously described (Wong et al., 2014). Vemurafenib (PLX 4032), erastin, Z-VAD-FMK, R428 and piperlongumine were all purchased from Selleck Chemicals. Deferoxamine was obtained from Sigma-Aldrich. Staurosporine was obtained from Cayman Chemicals. Trolox was obtained from Acros Organics. Recombinant TNFα and IFNγ were both obtained from Peprotech. For the BRAFi timecourse study, M229 was treated with vemurafenib or DMSO for the indicated timepoints at twice the 50% inhibition concentration (500 nM). For the crystal violet assays, cells for seeded at low density in 6-well plates. The next day media was replaced by drug media and replenished every 2-3 days. Plates were stained with crystal violet solution (1% crystal violet, 10% methanol). Control wells were grown for 1 week and stained when 100% confluent.

[4] = tested on: human melanoma cell lines of the M series; experiment: Cell viability dose-response (CellTiter-Glo) across M series melanoma cell lines; format: cell-based
Procedure: as §2
as §1, with “Trypan blue exclusion was also used for cell death assays.” left out

[5] = tested on: melanoma cell lines; experiment: Immunoblot of differentiation biomarkers (AXL, NGFR, MITF, MART-1) and pERK; format: cell-based, human; conditions: IFNγ=100 U/mL, TNFα=1000 U/mL; M229, M397, M249
Procedure: Cells were lysed in modified RIPA buffer (50 mM Tris-HCl (pH 7.5), […], 10 mM β-glycerophosphate, 1% NP-40, 0.25% sodium deoxycholate, 10 mM sodium pyrophosphate, 30 mM sodium fluoride, 1 mM EDTA, 1 mM vanadate, 20 μg/ml aprotinin, 20 μg/ml leupeptin, and 1 mM phenylmethylsulfonyl fluoride). Whole-cell lysates were resolved by SDS-PAGE on TruPAGE 4-15% gradient gels (Sigma-Aldrich) and blotted onto nitrocellulose membranes. Membranes were blocked overnight with 5% milk and then incubated sequentially with primary and then IRDye-conjugated secondary antibodies (Li-Cor). Blots were imaged using the Odyssey Infrared Imaging System (Li-Cor). Primary antibodies used for Western blot analysis were MITF (DGG7V, CST), MART-1 (A103, SCBT), and AXL (C89E7, CST).

Row | Molecule | specificity of cell death-inducing compound for dedifferentiated melanoma cells [1] | further results
1 | O=c1c2ccccc2nc(/C=C/c2cccnc2)n1Cc1ccccc1 [B02] | specificity for dedifferentiated melanoma cells | 
2 | Cn1cc(-c2ccc3nnc(Sc4ccc5ncccc5c4)n3n2)cn1 [SGX-523] | specificity for dedifferentiated melanoma cells | 
3 | Cc1c(C)c2c(c(C)c1O)CCC(C)(C(=O)O)O2 (centres unmarked) [Trolox] |  | rescue of erastin-induced decrease in cell viability ([2]; 100 μM DFO or 150 μM Trolox with erastin): almost completely rescued
4 | O=C1c2ccccc2-c2nc3nonc3nc21 [SMER-3] | specificity for dedifferentiated melanoma cells | 
5 | Cc1cnc(Nc2ccc(OCCN3CCCC3)cc2)nc1Nc1cccc(S(=O)(=O)NC(C)(C)C)c1 [TG-101348] | specificity for dedifferentiated melanoma cells | 
6 | CC(C)[C@H](O)C(=O)N[C@@H](C)C(=O)N[C@@H]1C(=O)N(C)CCc2ccccc21 [Semagacestat] | specificity for dedifferentiated melanoma cells | 
7 | Cc1c(N)nc([C@H](CC(N)=O)NC[C@H](N)C(N)=O)nc1C(=O)N[C@H](C(=O)N[C@H](C)[C@@H](O)[C@H](C)C(=O)N[C@H](C(=O)NCCc1nc(-c2nc(C(=O)NCCC[S+](C)C)cs2)cs1)[C@@H](C)O)[C@@H](O[C@@H]1O[C@@H](CO)[C@@H](O)[C@H](O)[C@@H]1O[C@H]1O[C@H](CO)[C@@H](O)[C@H](OC(N)=O)[C@@H]1O)c1c[nH]cn1.[Br-] [bleomycin A2] | specificity for dedifferentiated melanoma cells | 
8 | COC(=O)c1ccc2c(c1)NC(=O)/C2=C(\Nc1ccc(N(C)C(=O)CN2CCN(C)CC2)cc1)c1ccccc1 [nintedanib] | specificity for dedifferentiated melanoma cells | 
9 | COc1ccc(N(C(=O)CCl)C(C(=O)NCCc2ccccc2)c2cccs2)cc1Cl (centres unmarked) [ML162] |  | sensitivity (CTRP AUC) with increased dedifferentiation status [1]: increased sensitivity
10 | AZD4547 | specificity for dedifferentiated melanoma cells | 
11 | ML334 diastereomer | specificity for dedifferentiated melanoma cells | 
12 | COC(=O)c1ccc([C@H]2c3[nH]c4ccccc4c3C[C@H](C(=O)OC)N2C(=O)CCl)cc1 [RSL3, (1S,3R)-RSL3] |  | sensitivity (CTRP AUC) with increased dedifferentiation status [1]: increased sensitivity; sensitivity upon IFNγ cytokine treatment ([3]; M249, higher doses (5 μM erastin, 500 nM RSL3)): increased sensitivity; long-term persisting cells ([3]; combined with vemurafenib (1 μM), 16-24 days, M229, M397, M249): substantial decrease; cell death compared to cytokine-only or untreated cells ([3]; in the presence of TNFα or IFNγ, 7 days): increased cell death; sensitivity in cell lines with vemurafenib-induced dedifferentiation ([4]; acquired resistance lines (P vs R) or long-term adaptive resistance (44 days)): increased sensitivity; sensitivity with dedifferentiation ([4]; across M series melanoma cell lines): increased sensitivity
13 | COc1cc2nccc(Oc3ccc(NC(=O)Nc4ccc(F)cc4F)c(F)c3)c2cc1OC [Ki8751] | specificity for dedifferentiated melanoma cells | 
14 | CCc1c2c(nc3ccc(O)cc13)-c1cc3c(c(=O)n1C2)COC(=O)[C@]3(O)CC [SN-38] | specificity for dedifferentiated melanoma cells | 
15 | Cc1onc(C(=O)N2CCN(C(c3ccc(Cl)cc3)c3ccc(Cl)cc3)CC2)c1[N+](=O)[O-] [M210, ML210] |  | sensitivity (CTRP AUC) with increased dedifferentiation status [1]: increased sensitivity
16 | O=C(c1cc(Cc2n[nH]c(=O)c3ccccc23)ccc1F)N1CCN(C(=O)C2CC2)CC1 [olaparib] | specificity for dedifferentiated melanoma cells | 
17 | TNFα |  | differentiation state (up-regulation of AXL, decreased MITF or MART-1) [5]: induced de-differentiation
18 | COc1cc(Nc2ncc(F)c(Nc3ccc4c(n3)NC(=O)C(C)(C)O4)n2)cc(OC)c1OC [tamatinib] | specificity for dedifferentiated melanoma cells | 
19 | COc1cc(/C=C/C(=O)N2CCC=CC2=O)cc(OC)c1OC [piperlongumine] |  | differentiation stage-associated trend in sensitivity ([4]; among subtypes and vemurafenib resistant lines): does not show any differentiation stage-associated trend; also recorded: no difference in sensitivity
20 | COc1cc(N2CCC(N3CCN(C)CC3)CC2)ccc1Nc1ncc(Cl)c(Nc2ccccc2S(=O)(=O)C(C)C)n1 [NVP-TAE684] | specificity for dedifferentiated melanoma cells | 
21 | O=C(c1ccc(/C=C/c2n[nH]c3ccccc23)cc1)N1CCNCC1 [KW-2449] | specificity for dedifferentiated melanoma cells | 
22 | COc1ccc(C2C(C(=O)Nc3ccccc3)=C(C)N=c3sc(=Cc4cn(Cc5ccccc5)c5ccccc45)c(=O)n32)cc1 (centres unmarked) [BCL-LZH-4] | specificity for dedifferentiated melanoma cells | 
23 | C=CC(=O)Nc1cc2c(Nc3ccc(F)c(Cl)c3)ncnc2cc1OCCCN1CCOCC1 [canertinib] | specificity for dedifferentiated melanoma cells | 
24 | NC(=O)Nc1cc(-c2cccc(F)c2)sc1C(=O)N[C@H]1CCCNC1 [AZD7762] | specificity for dedifferentiated melanoma cells | 
25 | CC1(C)CC(=O)c2c(C(F)(F)F)nn(-c3ccc(C(N)=O)c(N[C@H]4CC[C@H](O)CC4)c3)c2C1 [SNX-2112] | specificity for dedifferentiated melanoma cells | 
26 | C=C1[C@@H](C)[C@H]2[C@H](Cc3ccccc3)NC(=O)[C@]23OC(=O)/C=C/[C@H](O)CCC[C@@H](C)C/C=C/[C@H]3[C@@H]1O [cytochalasin B] | specificity for dedifferentiated melanoma cells | 
27 | Cc1c[nH]c(-c2cnc(NCCNc3ccc(C#N)cn3)nc2-c2ccc(Cl)cc2Cl)n1 [CHIR-99021] | specificity for dedifferentiated melanoma cells | 
28 | COC(=O)C[C@H](NC(=O)[C@H](C)NC(=O)[C@@H](NC(=O)OCc1ccccc1)C(C)C)C(=O)CF [Z-VAD-FMK] (Cbz-Val-Ala-Asp(OMe)-CH2F) |  | rescue of apoptosis induced by staurosporine ([2]; trypan blue, 24 hr 1 μM staurosporine, Z-VAD-FMK pre-treatment 1 hr, positive control): could rescue; rescue of death induced by erastin treatment ([2]; trypan blue, 24 hr 5 μM erastin, Z-VAD-FMK pre-treatment 1 hr): could not rescue
29 | B1 |  | differentiation state (up-regulation of AXL, decreased MITF or MART-1) [5]: induced de-differentiation
